# Laboratory results reported in ChEMBL document CHEMBL1132938, “Novel synthetic oleanane and ursane triterpenoids with various enone functionalities in ring A as inhibitors of nitric oxide production in mouse macrophages” (J Med Chem, 2000).
# Species: Mus musculus
# Assay: Percent inhibition of nitric oxide production induced by IFN-uM concentration
# Assay type: functional
# Design: concentration or dose not given beside the values
row,Compound,Inhibition [%]
1,CC1(C)CCC2(C(=O)O)CC[C@]3(C)C(=CC[C@@H]4[C@@]5(C)CC[C@@H](Cl)C(C)(C)[C@@H]5CC[C@]43C)C2C1 (stereo partly specified),0
2,CC(=O)OC[C@]12CCC(C)(C)CC1C(O)[C@](C)([C@]1(C)CC[C@H]3C(C)(C)[C@@H](OC(C)=O)CC[C@]3(C)[C@H]1CCO)CC2 (stereo partly specified),12
3,CC(=O)OCC12CCC(C)(C)CC1[C@H]1[C@H](OC(C)=O)C[C@@H]3[C@@]4(C)CC[C@H](OC(C)=O)C(C)(C)[C@@H]4CC[C@@]3(C)[C@]1(C)CC2 (stereo partly specified),0
4,CC1(C)CC[C@]2(C(=O)O)CC[C@@](C)([C@]3(C)CC[C@H]4C(C)(C)C(=O)CC[C@]4(C)[C@H]3CC(=O)O)C(=O)C2C1 (stereo partly specified),28
5,COC(=O)C12CCC(C)(C)CC1C1=CC[C@@H]3[C@@]4(C)CC[C@H](OC(C)=O)C(C)(C)[C@@H]4CC[C@@]3(C)[C@]1(C)CC2 (stereo partly specified),10
6,CC1(C)CCC2(CO)CC[C@]3(C)C(=CC[C@@H]4[C@@]5(C)CC[C@H](O)C(C)(C)[C@@H]5CC[C@]43C)C2C1 (stereo partly specified),0
7,COC(=O)C12CCC(C)(C)CC1C1=CC[C@@H]3[C@@]4(C)CCC(=O)C(C)(C)[C@@H]4CC[C@@]3(C)[C@]1(C)CC2 (stereo partly specified),24
8,CC1(C)CCC2(CO)CC[C@]3(C)[C@@H](C2C1)[C@@H](O)C[C@@H]1[C@@]2(C)CC[C@H](O)C(C)(C)[C@@H]2CC[C@]13C (stereo partly specified),48
9,C=C(C)[C@@H]1CC[C@]2(C)[C@H](CC=C3C4[C@@H](C)[C@H](C)CC[C@]4(C(=O)O)CC[C@]32C)[C@@]1(C)CCC#N (stereo partly specified),39
10,COC(=O)C12CC[C@@H](C)[C@H](C)C1C1=CC[C@@H]3[C@@]4(C)CCC(=O)C(C)(C)[C@@H]4CC[C@@]3(C)[C@]1(C)CC2 (stereo partly specified),16
11,COC(=O)C12CCC(C)(C)CC1C1=CC[C@@H]3[C@@]4(C)CCC(=O)NC(C)(C)[C@@H]4CC[C@@]3(C)[C@]1(C)CC2 (stereo partly specified),0
12,COC(=O)C12CCC(C)(C)CC1[C@H]1C(=O)C[C@@H]3[C@@]4(C)CCC(=O)C(C)(C)[C@@H]4CC[C@@]3(C)[C@]1(C)CC2 (stereo partly specified),3
13,C[C@@H]1CC[C@]2(C(=O)O)CC[C@]3(C)C(=CC[C@@H]4[C@@]5(C)C[C@@H](Cl)C(=O)C(C)(C)[C@@H]5CC[C@]43C)C2[C@H]1C (stereo partly specified),55
14,C[C@@H]1CCC2(C(=O)O)CC[C@]3(C)C(=CC[C@@H]4[C@@]5(C)CC[C@@H](O)C(C)(C)[C@@H]5CC[C@]43C)C2[C@H]1C (stereo partly specified),48
15,CC1(C)CC[C@@]23CC[C@]4(C)[C@](OC2=O)(C(=O)C[C@@H]2[C@@]5(C)CCC(=O)C(C)(C)[C@@H]5CC[C@]24C)C3C1 (stereo partly specified),0
16,COC(=O)C12CCC(C)(C)CC1C1=CC[C@@H]3[C@@]4(C)CC=CC(C)(C)[C@@H]4CC[C@@]3(C)[C@]1(C)CC2 (stereo partly specified),3
17,CC1(C)CC[C@@]23CC[C@]4(C)[C@@](OC2O)(C3C1)[C@@H](O)C[C@@H]1[C@@]2(C)CC[C@H](O)C(C)(C)[C@@H]2CC[C@]14C (stereo partly specified),21
18,C[C@@H]1CCC2(C(=O)O)CC[C@]3(C)C(=CC[C@@H]4[C@@]5(C)CCC(=O)C(C)(C)[C@@H]5CC[C@]43C)C2[C@H]1C (stereo partly specified),22
19,CC(=O)OC[C@]12CCC(C)(C)CC1C(=O)[C@](C)([C@]1(C)CC[C@H]3C(C)(C)[C@@H](OC(C)=O)CC[C@]3(C)[C@H]1CC(=O)O)CC2 (stereo partly specified),52
20,CC1(C)CC[C@@]23CC[C@]4(C)[C@@](OC2=O)(C3C1)[C@@H](Br)C[C@@H]1[C@@]2(C)CCC(=O)C(C)(C)[C@@H]2CC[C@]14C (stereo partly specified),4
21,CC(=O)OCC12CCC(C)(C)CC1[C@H]1[C@@H](O)C[C@@H]3[C@@]4(C)CC[C@H](OC(C)=O)C(C)(C)[C@@H]4CC[C@@]3(C)[C@]1(C)CC2 (stereo partly specified),0

row,Compound,Inhibition [%]
1,C=C(C)[C@@H]1CC[C@]2(C)[C@H](CC=C3C4CC(C)(C)CC[C@]4(C(=O)O)CC[C@]32C)[C@@]1(C)CCC=O (stereo partly specified),22
2,C=C(C)[C@@H]1CC[C@]2(C)[C@H](CC=C3C4[C@@H](C)[C@H](C)CC[C@]4(C(=O)O)CC[C@]32C)[C@@]1(C)CCC=O (stereo partly specified),55
3,CC1(C)CCC2(C(=O)O)CC[C@]3(C)C(=CC[C@@H]4[C@@]5(C)CCC(=O)NC(C)(C)[C@@H]5CC[C@]43C)C2C1 (stereo partly specified),51
4,COC(=O)C12CCC(C)(C)CC1[C@H]1C(=O)C[C@@H]3[C@@]4(C)CC[C@H](OC(C)=O)C(C)(C)[C@@H]4CC[C@@]3(C)[C@]1(C)CC2 (stereo partly specified),0
5,COC(=O)C12CC[C@@H](C)[C@H](C)C1C1=CC[C@@H]3[C@@]4(C)CC[C@H](O)C(C)(C)[C@@H]4CC[C@@]3(C)[C@]1(C)CC2 (stereo partly specified),0
6,CC1(C)CCC2(C=O)CC[C@]3(C)C(=CC[C@@H]4[C@@]5(C)CCC(=O)C(C)(C)[C@@H]5CC[C@]43C)C2C1 (stereo partly specified),11
7,CC1(C)CCC2(CO)CC[C@]3(C)[C@@](O)(C2C1)[C@@H](O)C[C@@H]1[C@@]2(C)CC[C@H](O)C(C)(C)[C@@H]2CC[C@]13C (stereo partly specified),22
8,CC(=O)O[C@H]1CC[C@]2(C)[C@H]3CC=C4C5[C@@H](C)[C@H](C)CCC5(C(=O)O)CC[C@@]4(C)[C@]3(C)CC[C@H]2C1(C)C (stereo partly specified),0
9,C[C@@H]1CCC2(C=O)CC[C@]3(C)C(=CC[C@@H]4[C@@]5(C)CCC(=O)C(C)(C)[C@@H]5CC[C@]43C)C2[C@H]1C (stereo partly specified),21
10,CC1(C)CCC2(C(=O)O)CC[C@]3(C)C(=CC[C@@H]4[C@@]5(C)CC=CC(C)(C)[C@@H]5CC[C@]43C)C2C1 (stereo partly specified),0
11,CC(C)C1=C2CC[C@]3(C)[C@H](CC=C4C5CC(C)(C)CCC5(C(=O)O)CC[C@]43C)[C@@]2(C)CC1 (stereo partly specified),0
12,CC(=O)OCC12CC[C@@H](C)[C@H](C)C1C1=CC[C@@H]3[C@@]4(C)CC[C@H](OC(C)=O)C(C)(C)[C@@H]4CC[C@@]3(C)[C@]1(C)CC2 (stereo partly specified),0
13,CC1(C)CCC2(C(=O)O)CC[C@]3(C)C(=C2C1)C=C[C@@H]1[C@@]2(C)CCC(=O)C(C)(C)[C@@H]2CC[C@]13C (stereo partly specified),47
14,C=C(C)[C@@H]1CC[C@]2(C)[C@H](CC=C3C4CC(C)(C)CC[C@]4(C(=O)OC)CC[C@]32C)[C@@]1(C)CCC#N (stereo partly specified),21
15,COC(=O)C12CCC(C)(C)CC1[C@H]1[C@@H](O)C[C@@H]3[C@@]4(C)CC[C@H](OC(C)=O)C(C)(C)[C@@H]4CC[C@@]3(C)[C@]1(C)CC2 (stereo partly specified),0
16,COC(=O)C12CC[C@@H](C)[C@H](C)C1C1=CC[C@@H]3[C@@]4(C)CC[C@H](OC(C)=O)C(C)(C)[C@@H]4CC[C@@]3(C)[C@]1(C)CC2 (stereo partly specified),15
17,CC1(C)CCC2(C(=O)O)CC[C@]3(C)[C@H](C(=O)C[C@@H]4[C@@]5(C)CCC(=O)C(C)(C)[C@@H]5CC[C@]43C)C2C1 (stereo partly specified),37
18,CC1(C)CCC2(C(=O)O)CC[C@]3(C)C(=CC[C@@H]4[C@@]5(C)CC[C@@H](O)C(C)(C)[C@@H]5CC[C@]43C)C2C1 (stereo partly specified),18
19,CC1(C)CCC2(C=O)CC[C@]3(C)[C@H](C(=O)C[C@@H]4[C@@]5(C)CCC(=O)C(C)(C)[C@@H]5CC[C@]43C)C2C1 (stereo partly specified),38
20,C[C@@H]1CCC2(CO)CC[C@]3(C)C(=CC[C@@H]4[C@@]5(C)CC[C@H](O)C(C)(C)[C@@H]5CC[C@]43C)C2[C@H]1C (stereo partly specified),8
